# Source: patent US20250340561A1, “QUINAZOLINE COMPOUND FOR INDUCING DEGRADATION OF G12D MUTANT KRAS PROTEIN” (Astellas Pharma Inc., priority 2021, published 2025)
# Like-named read-outs stand apart in the source and are kept apart here.
# Tests used:
# [1] = system: phosphorylation of ERK (Thr202/Tyr204); experiment: Test Example 2: ERK phosphorylation inhibition action in AsPC-1, Cell ELISA; assay type: cell-based, human; details: Homo sapiens, ASPC1, 24 h, AsPC-1 cells, 0% = 1 μM trametinib
# Method in brief: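 AsPC-1 cells (KRAS G12D) treated 24 h with compound (6 points, 10 μM to 3.0 nM final) in RPMI 1640/10% FBS. Fixed with glyoxal; pERK Thr202/Tyr204 detected by In-Cell ELISA with 800 nm fluorescence. IC50 by Sigmoid-Emax regression, with DMSO set to 100% and 1 μM trametinib to 0%.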
# [2] = system: human G12D mutant KRAS-positive pancreatic cancer line AsPC-1; experiment: Test Example 3: non-anchorage-dependent cell growth inhibition, spheroid 3D cell culture; assay type: cell-based; details: Homo sapiens, ASPC1, 144 h, AsPC-1 spheroid 3D culture, 6 days, CellTiter Glo 2.0
# Method in brief: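 AsPC-1 cells were grown as spheroids (5×10^2 cells/well, low-adhesion round-bottom plates). Next day they were treated with compound at 6 final concentrations from 10 μM to 3.0 nM for 6 days at 37 °C, and viability was read by CellTiter Glo luminescence. IC50 came from Sigmoid-Emax nonlinear regression, normalized between DMSO-treated and cell-free wells.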
Structure (SMILES),IC50 ([1]; read-out: IC50) [nM],IC50 ([2]; read-out: IC50) [nM],IC50 [1] [nM],IC50 [2] [nM]
Cc1c(F)cc2[nH]ncc2c1-c1c(C2CC2)cc2c(N3C[C@@H]4C[C@H]3CN4)nc(OC3CCOCC3)nc2c1OCc1ccc(-c2cn([C@H](C(=O)N3C[C@H](O)C[C@H]3C(=O)N[C@@H](CO)c3ccc(-n4ccnc4C)cc3)C(C)C)nn2)cc1 [Example 69],17,64,–,–
Cc1ncsc1-c1ccc([C@H](CO)NC(=O)[C@@H]2C[C@@H](O)CN2C(=O)[C@H](C(C)C)n2cc(-c3ccc(COc4c(-c5c(C)c(F)cc6[nH]ncc56)c(C5CC5)cc5c(N6C[C@@H]7C[C@H]6CN7)nc(OC6COC6)nc45)cc3)nn2)cc1 [Example 27],–,–,27,103
Cc1ncsc1-c1ccc(C2(NC(=O)[C@@H]3C[C@@H](O)CN3C(=O)[C@@H](NC(=O)c3ccc(COc4c(-c5c(C)c(F)cc6[nH]ncc56)c(C5CC5)cc5c(N6C[C@@H]7C[C@H]6CN7)nc(OC6CCOCC6)nc45)cc3)C(C)C)CC2)cc1 [Example 1],–,–,89,190
